Positions of bridges follow the written chain, without caps; N, C: chain ends. Non-standard residues stand in square brackets, D forms with d. No end group written: not given here. hArg = N=C(N)NCCCC[C@H](N)C(=O)O; Cit = NC(=O)NCCC[C@H](N)C(=O)O

The first assay concerns murine E^k MHC class II allele. The experiment in a line: antigenic peptide prepulse assay, E^k allele (fixed APC prepulsed with PGCC81-104). It is filed as cell-based. The conditions noted are these: Table 25; AE peptide 64 μM; prepulse 2.5 μM antigenic peptide; supernatant 1:10. A digest of the protocol:
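Paraformaldehyde-fixed APC were loaded for 6 h with antigenic peptide (PGCC81-104 for E^k), washed, then cultured for 24 h with specific T hybridoma plus AE101 peptide. Interleukin release was measured as HT-2 proliferation on supernatant.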
As for Ac-A[Cit]NKNPK-NH2 [AE351], the “Activity in antigenic peptide prepulse assay, E^k (baseline = 1.00)” value (“Activity … (baseline = 1.00)” below) is on record as 0.90.

As to Ac-LRMKNPF-NH2 [AE350], the “Activity … (baseline = 1.00)” value was 0.86.

Take Ac-LR Orn K HArg PK-NH2 [AE340]: the “Activity … (baseline = 1.00)” value is reported as 0.83.

The same assay, now with this note: Table 26; AE peptide 64 μM; prepulse 1.25 μM antigenic peptide; supernatant 1:8.
In the case of Ac-LK HArg KYPK-NH2 [AE363], the “Activity in antigenic peptide prepulse assay, E^k (baseline = 1.0)” value (from here on “Activity … (baseline = 1.0)”) stood at 0.97.

As for Ac-L[hArg]LKYPK-NH2 [AE361], the “Activity … (baseline = 1.0)” value turned out to be 1.00.

As to Ac-LRMMYP[Cit]-NH2 [AE367], the “Activity … (baseline = 1.0)” value was found to be 0.99.

In the case of Ac-LKMKYPK-NH2 [AE362], the “Activity … (baseline = 1.0)” value was 0.91.

Ac-LRMKYP[Cit]-NH2 [AE364]: the “Activity … (baseline = 1.0)” value is recorded as 0.93.

As for Ac-LR HArg KYP Cit-NH2 [AE366], the “Activity … (baseline = 1.0)” value worked out at 0.94.

As to Ac-L[hArg]MKYPK-NH2 [AE360], the “Activity … (baseline = 1.0)” value is given as 0.94.

With Ac-LRLKYPN-NH2 [AE368], the “Activity … (baseline = 1.0)” value amounted to 0.92.

As to Ac-LR HArg MYPK-NH2 [AE365], the “Activity … (baseline = 1.0)” value amounted to 0.42.

Regarding Ac-FK HArg MYP Cit-NH2 [AE371], the “Activity … (baseline = 1.0)” value was determined as 0.99.

For the substance Ac-LRMKYPN-NH2 [AE370], the “Activity … (baseline = 1.0)” value is given as 0.58.

Staying with this assay, now noted: Table 28; AE peptide 64 μM; prepulse 1.25 μM antigenic peptide; supernatant 1:4.
Regarding “cyclic LRMKLPK (bridge (positions not given here); also: cyclic, ring type not given here) [AE381, “head-to-tail” cyclization from the amino-terminus to the carboxyl-terminus of AE114]”, the “Activity … (baseline = 1.0)” value was found to be 0.28.

Take Ac-LRMKLPK (lactam 4-C) [AE382]: the “Activity … (baseline = 1.0)” value is 0.70.

The record behind these values is US6835382B2, “Ii peptide therapeutics to enhance antigen presentation” (University of Massachusetts, priority 1996, dated 2004).
